According to US12527849B2, “Apparatus for determining administration form of a composition of an engineered virus-based nanoparticle for a treatment of an autoimmune condition” (Diamante Srl, priority 2021, dated 2026):

Test system: IL-17A
Assay: Cytokine ELISA in CIA mice, day 60: IL-17A
Assay type: in vivo
From the text: With continued reference to FIG. 1, in some embodiments, administration 116 may be done to an animal. As a non-limiting example, the animal may include a mouse, a fish, a rabbit, human, and the like. As a non-limiting example, administration 116 of composition of the engineered virus-based nanoparticle for a treatment of an autoimmune condition may be done to dilute, brown, and non-agouti (DBA) mice based on their susceptibility to collagen-induced arthritis (CIA). Female DBA/1 mice 6 to 8 weeks of age may be maintained under specific pathogen-free conditions. CIA may be induced by the intradermal tail base injection of 100 μg of chicken type II collagen (Sigma-Aldrich) as previously described. Five mice per group may be immunized on days 0 and 21 to induce arthritis. The onset of disease may be confirmed on the day that swelling or erythema may be observed in any paw, typically 4 to 10 days after the second immunization. […] CIA may be assessed using a macroscopic score system based on the visual identification of arthritic limbs. The clinical severity of arthritis may be evaluated as follows: Each mouse may be inspected every 2 to 3 days for three different parameters: (i) swelling of the hind ankle and foot, measured with calipers; (ii) erythema of each leg; and (iii) swelling of the fingers. The RA index for each mouse was expressed as the mean of the three scores from the individual parameters. At the end of the experiment (60 days), we determined the proportion of CD25+Foxp3+ cells in the lymph nodes and measured cytokine titers in the lymph nodes, joints, and serum.
With continued reference to FIG. 1, in some embodiments, processor 104 may determine critical administration 124 as a function of a cytokine profile and a proportion of CD25^+ Foxp3^+ cells. […] In some embodiments, to quantify cytokines in DBA mice, joint tissues may be pulverized and resuspended in 1 ml of lysis medium per 100-mg joint weight for 60 min at 37′C, followed by centrifugation to remove debris. […]

C[C@@H]1C[C@H]2[C@@H]3CCC4=CC(=O)C=C[C@]4(C)[C@@]3(F)[C@@H](O)C[C@]2(C)[C@@]1(O)C(=O)CO [Dexamethasone, dexamethasone] was tested, and the “IL-17A J” value (joint supernatant, CIA mice, day 60, mean n=3) was 1219.43 pg/mL, the “IL-17A LN” value (lymph node supernatant, CIA mice, day 60, mean n=3) was 1540.40 pg/mL and the “IL-17A S” value (serum pooled from five CIA mice, day 60) was 313.8 pg/mL.
